Results from patent publication US8680065B2, “Oligonucleotides of human endogenous retrovirus 9 (ERV-9) long terminal repeat (LTR) and methods of use” (The United States of America, as represented by the …, priority 2008, dated 2014).

Key:
[1] = test system: HT1080 cells (a fibrosarcoma cell line); test: Cancer cell proliferation, oligonucleotide in LIPOFECTAMINE, 48 hours, direct cell counting; format: cell-based, human; details: P<0.05
Experimental: FIG. 1 is a graph showing the effect of sense and antisense ERV-9 U3 oligonucleotides (SEQ ID NOs: 1 and 2, respectively) on proliferation of HT1080 cells (a fibrosarcoma cell line). Cells (4×10^4) were treated with ERV-9 U3 sense or antisense oligonucleotide formulated in LIPOFECTAMINE™ at the concentrations shown for 48 hours. Green fluorescent protein (GFP) sense oligonucleotide (SEQ ID NO: 3) was used as a control to measure the non-specific cytotoxicity of phosphorothioate-based oligonucleotides. Antisense oligonucleotides specific for Bcl-2 (G3139; SEQ ID NO: 4), telomerase (GRN163; SEQ ID NO: 5) and MDM2 (SEQ ID NO: 6) were also evaluated. Cell proliferation levels were expressed relative to cells transfected with 10 μg/ml GFP oligonucleotide.
To test the effect of the sense and antisense ERV-9 U3 oligonucleotides on proliferation of cancer cells, six different cancer cell lines were selected for transfection studies: HT1080, fibrosarcoma cells (FIG. 1); MDA-231, breast cancer cells (FIG. 2); K562, myelogenous leukemia cells (FIG. 3); LNcaP, prostate cancer cells (FIG. 4); HepG2, hepatocellular carcinoma cells (FIG. 5); and MCF-7, breast cancer cells (FIG. 6). Cells (4×10^4) were treated with ERV-9 U3 sense or antisense oligonucleotide formulated in LIPOFECTAMINE™ at an oligonucleotide concentration of 10, 20 or 30 μg/ml for 48 hours. Green fluorescent protein (GFP) sense oligonucleotide ([…]; SEQ ID NO: 3) was used as a control to measure the non-specific cytotoxicity of phosphorothioate-based oligonucleotides. Antisense oligonucleotides specific for Bcl-2 (G3139; TCTCCCAGCGTGCGCCAT; SEQ ID NO: 4), telomerase (GRN163; TAGGGTTAGACAA; SEQ ID NO: 5), and MDM2 ([…]; SEQ ID NO: 6) were also evaluated. […] After 48 hours of oligonucleotide treatment, cell proliferation was assessed by direct cell counting. Cell proliferation levels were expressed relative to cells transfected with 10 μg/ml GFP control oligonucleotide.

[2] = test system: MDA-231 cells (a breast cancer cell line); test: as above; format: cell-based, human; details: oligonucleotide 10, 20 or 30 μg/ml, P<0.05
[3] = test system: HT1080, MDA-231, K562, LNcaP, HepG2 and MCF-7 cancer cell lines; test: Cancer cell proliferation, Example 2, summary over six cancer cell lines, alone or with VP16; format: cell-based, human; details: for proliferation relative to GFP control oligonucleotide: each of six cancer cell lines, oligonucleotide 15 μg/ml, 48 hours; for proliferation compared with Bcl-2, telomerase and MDM2-specific antisense oligonucleotides: six cancer cell lines, alone or with VP16, in most instances
Experimental: To test the effect of treating cancer cells with the combination of ERV-9 U3 oligonucleotide and VP16, six different cancer cell lines were analyzed: HT1080, (FIG. 7); MDA-231 (FIG. 8); K562 (FIG. 9); LNcaP (FIG. 10); HepG2 (FIG. 11); and MCF-7 (FIG. 12). Cells (4×10^4) were treated with 15 μg/ml ERV-9 U3 sense (SEQ ID NO: 1) or antisense (SEQ ID NO: 2) oligonucleotide alone or in combination with VP16 at a concentration of 30 ng/ml or 50 ng/ml. After 48 hours, cell proliferation was assessed by direct cell counting. Cell proliferation levels were expressed relative to GFP oligonucleotide control in the absence of VP16.

HT1080 tumor xenografts = test: Growth of human tumor xenografts in SCID mice; format: in vivo; details: HT1080 xenograft; for tumor growth, combination treatment with VP16: 50 μg oligonucleotide and 50 ng VP16 once per day; for tumor burden compared to treatment with G3139: 50 μg oligonucleotide per mouse; for tumor growth (tumor size): 50 μg oligonucleotide per mouse injected around tumor once per day
Experimental: (§1) FIG. 18A is a pair of graphs showing the effect of sense and antisense ERV-9 U3 oligonucleotides (SEQ ID NOs: 1 and 2, respectively) on growth of MDA-231 (top) and HT1080 (bottom) tumor xenografts in SCID mice. Mice were injected with 50 μg of the indicated oligonucleotides once per day for 14 days (MDA-231) or 7 days (HT1080).
(§2) FIG. 18B is a pair of graphs showing the effect of sense and antisense ERV-9 U3 oligonucleotides (SEQ ID NOs: 1 and 2, respectively) on growth of MDA-231 (top) and HT1080 (bottom) tumor xenografts in SCID mice in combination with VP16. Mice were injected with 50 μg of the indicated oligonucleotides and 50 ng of VP16 once per day for 24 days (MDA-231) or 14 days (HT1080).
(§3) CB-17 prkdc(SCID) male, 4- to 6-week-old SCID mice were purchased from the Jackson Laboratory. Cultured cells (MDA-231 or HT1080 cells) were washed with and resuspended in serum-free media. The suspension (2×10^6 cells in 0.2 ml per mouse) was then injected into the chest area of the mice. The mice were monitored by measuring tumor growth and body weight and by general clinical observation. When tumor size reached approximately 4×4 mm, tumor-bearing mice were randomly divided into multiple treatment and control groups (five mice per group). All oligonucleotides, dissolved in PBS, were injected into the surrounding area of the tumor at doses of 50 μg per mouse (approximately 2.5 mg/kg), one time per day, 5 days/week until the tumor size of the control injected tumors reached about 20×20 mm (2×2 cm). The tumors were dissected from mice and weighed with the investigator blinded as to the treatment group. In combination therapy, 50 μg of the oligonucleotide (approximately 2.5 mg/kg) and 50 ng of VP16 (approximately 2.5 μg/kg), both dissolved in PBS, were injected together (one time per day, 5 days/week) into the surrounding area of the tumor to all groups.

MDA-231 tumor xenografts = test: Growth of human tumor xenografts in SCID mice; format: in vivo; details: MDA-231 xenograft; for tumor growth, combination treatment with VP16: 50 μg oligonucleotide and 50 ng VP16 once per day; for tumor burden compared to treatment with G3139: 50 μg oligonucleotide per mouse; for tumor growth (tumor size): 50 μg oligonucleotide per mouse injected around tumor once per day
Experimental: as §1, §2, §3

[4] = oligonucleotide 20 μg/ml and 30 μg/ml

Substance | cell proliferation relative to GFP oligonucleotide ([1]; oligonucleotide 10 μg/ml) | cell proliferation relative to GFP oligonucleotide [1, 4] | cell proliferation relative to GFP oligonucleotide [2] | proliferation relative to GFP control oligonucleotide [3] | proliferation compared with Bcl-2, telomerase and MDM2-specific antisense oligonucleotides [3] | tumor growth, combination treatment with VP16 (HT1080 tumor xenografts) | tumor burden compared to treatment with G3139 (HT1080 tumor xenografts) | tumor growth (tumor size) (HT1080 tumor xenografts) | tumor growth, combination treatment with VP16 (MDA-231 tumor xenografts) | tumor burden compared to treatment with G3139 (MDA-231 tumor xenografts) | tumor growth (tumor size) (MDA-231 tumor xenografts)
U3AS: ERV-9 LTR U3 antisense oligonucleotide CTGATTGGTGTGTTTACAAACCTTGAG, phosphorothioate internucleoside linkages at each position (all phosphorothioate, sugars by position and methylation of C not given here) [Oligo U3AS] | inhibited cell proliferation better than GFP oligonucleotide | inhibited cell proliferation better than GFP control and G3139, GRN163 and MDM2 antisense oligonucleotides | inhibited cell proliferation better than GFP control oligonucleotide at all three oligonucleotide concentrations | resulted in a significant decrease in proliferation of each cancer cell line tested, relative to GFP control oligonucleotide | inhibited proliferation to a greater extent than the Bcl-2, telomerase and MDM2-specific antisense oligonucleotides, either alone or in combination with VP16 | inhibited tumor growth when co-administered with VP16 better than GFP oligonucleotide or G3139 antisense oligonucleotide | had reduced tumor burden for both MDA-231 and HT1080 tumors, although this did not reach statistical significance | inhibited tumor growth better than GFP oligonucleotide or G3139 antisense oligonucleotides | inhibited tumor growth when co-administered with VP16 better than GFP oligonucleotide or G3139 antisense oligonucleotide | had reduced tumor burden for both MDA-231 and HT1080 tumors, although this did not reach statistical significance | inhibited tumor growth better than GFP oligonucleotide or G3139 antisense oligonucleotides
U3S: ERV-9 LTR U3 sense oligonucleotide CTCAAGGTTTGTAAACACACCAATCAG, phosphorothioate internucleoside linkages at each position (all phosphorothioate, sugars by position and methylation of C not given here) [Oligo U3S] | inhibited cell proliferation better than GFP oligonucleotide | inhibited cell proliferation better than GFP control and G3139, GRN163 and MDM2 antisense oligonucleotides | inhibited cell proliferation better than GFP control oligonucleotide at all three oligonucleotide concentrations | resulted in a significant decrease in proliferation of each cancer cell line tested, relative to GFP control oligonucleotide | inhibited proliferation to a greater extent than the Bcl-2, telomerase and MDM2-specific antisense oligonucleotides, either alone or in combination with VP16 | inhibited tumor growth when co-administered with VP16 better than GFP oligonucleotide or G3139 antisense oligonucleotide | had reduced tumor burden for both MDA-231 and HT1080 tumors, although this did not reach statistical significance | inhibited tumor growth better than GFP oligonucleotide or G3139 antisense oligonucleotides | inhibited tumor growth when co-administered with VP16 better than GFP oligonucleotide or G3139 antisense oligonucleotide | had reduced tumor burden for both MDA-231 and HT1080 tumors, although this did not reach statistical significance | inhibited tumor growth better than GFP oligonucleotide or G3139 antisense oligonucleotides
